This is an account of results in patent publication US20240228607A9, “METHODS FOR TREATING HIGH RISK MYELODYSPLASTIC SYNDROMES” (Northwestern University, priority 2022, published 2024).

“Also recorded” adds a separate entry of the source.

The test system of assay [1] is high risk MDS patient bone marrow derived CD34+ cells. Briefly: Colony-forming unit (CFU) assay, high risk MDS patient bone marrow CD34+ cells. Type of assay: cell-based. The note with it: CD34+ cells from high risk MDS patients, 50 μg/mL, day 14, vs human IgG. Here is the method: (§1) (A) Cultured MDS-derived cell line (MDSL) cells were treated with tocilizumab or IgG for 1 hour at the indicated concentration. Cells were then challenged with human recombinant IL-6 (10 ng/mL) for 15 min followed by a western blot assay of p-STAT3. Actin was used as a loading control. (B) 1×10^4/well MDSL cells were seeded in a 96-well plate on day 0 in MDSL culture medium with 50 μg/mL tocilizumab or 50 μg/mL human IgG control. Relative cell number was assessed with CCK-8 reagent at the indicated time points. (C) 1×10^6 MDSL cells were transplanted into sub-lethally irradiated NSG recipient mice. 10 days after transplantation, mice were subjected to weekly treatment with tocilizumab (TCZ) or human IgG (8 mg/kg) by intraperitoneal administration. Engraftment was evaluated 60 days post transplantation via flow cytometry assays of hCD45+ mononuclear cells in the peripheral blood. N=5 in each group, data are presented as Mean±SD. (D) Quantification of the percentage of hCD45+ cells in C. […]
(§2) For the CFU assay, CD34+ cells were thawed in a 37° C. water bath. […] Cell viability was assessed with trypan blue staining and counted with Bio-Rad TC20 cell counter. […] 14 days after seeding, the CFU assay was ready for evaluation. Colonies were counted under an inverted microscope (EVOS M5000, Thermo Fisher), and the colonies were identified by two independent individuals.

The subject of the next assay is p-STAT3. Description: Western blot of p-STAT3 in MDSL cells challenged with human recombinant IL-6. It is filed as cell-based. The note with it: 1 hour treatment, then human recombinant IL-6 10 ng/mL for 15 min, vs IgG. The procedure:
as §1, with “C. (E-F) Colony-forming unit (CFU) assays in normal (E) and high risk MDS patient (F) bone marrow derived CD34+ cells. 1×10^3 normal (E) or 2×10^3 patient CD34+ cells (F) were seeded in MethoCult medium supplemented with human IgG or tocilizumab (50 μg/mL) on day 0. The number of colonies was accessed on day 14. Triplicate assay colonies were independently identified by two individuals.” for “C.”

Assay [2] has as its system MDSL cells. Briefly: Cell death in MDSL cells. Type of assay: cell-based, human.
The test system of assay [3] is MDSL cells. Briefly: MDSL cell proliferation (CCK-8). It is filed as cell-based. The note with it: 50 μg/mL, vs human IgG control. The procedure:
as §1, with “C. (E-F) Colony-forming unit (CFU) assays in normal (E) and high risk MDS patient (F) bone marrow derived CD34+ cells. 1×10^3 normal (E) or 2×10^3 patient CD34+ cells (F) were seeded in MethoCult medium supplemented with human IgG or tocilizumab (50 μg/mL) on day 0. The number of colonies was accessed on day 14. Triplicate assay colonies were independently identified by two individuals.” for “C.”

The test system of assay [4] is normal bone marrow CD34+ cells. Description: Colony-forming unit (CFU) assay, normal bone marrow CD34+ cells. Type of assay: cell-based. The note with it: 50 μg/mL, day 14, vs human IgG. Here is the method: as §1, §2
The test system of assay [5] is MDSL cells. Briefly: Xenograft of MDSL cells in NSG mice. It is filed as in vivo, mouse. The note with it: 8 mg/kg weekly intraperitoneal; for spleen weight: NSG mice transplanted with MDSL cells. Here is the method:
(A) Cultured MDS-derived cell line (MDSL) cells were treated with tocilizumab or IgG for 1 hour at the indicated concentration. Cells were then challenged with human recombinant IL-6 (10 ng/mL) for 15 min followed by a western blot assay of p-STAT3. Actin was used as a loading control. (B) 1×10^4/well MDSL cells were seeded in a 96-well plate on day 0 in MDSL culture medium with 50 μg/mL tocilizumab or 50 μg/mL human IgG control. Relative cell number was assessed with CCK-8 reagent at the indicated time points. (C) 1×10^6 MDSL cells were transplanted into sub-lethally irradiated NSG recipient mice. 10 days after transplantation, mice were subjected to weekly treatment with tocilizumab (TCZ) or human IgG (8 mg/kg) by intraperitoneal administration. Engraftment was evaluated 60 days post transplantation via flow cytometry assays of hCD45+ mononuclear cells in the peripheral blood. N=5 in each group, data are presented as Mean±SD. (D) Quantification of the percentage of hCD45+ cells in C. (E-F) Colony-forming unit (CFU) assays in normal (E) and high risk MDS patient (F) bone marrow derived CD34+ cells. 1×10^3 normal (E) or 2×10^3 patient CD34+ cells (F) were seeded in MethoCult medium supplemented with human IgG or tocilizumab (50 μg/mL) on day 0. The number of colonies was accessed on day 14. Triplicate assay colonies were independently identified by two individuals. Data are presented as Mean±SD. E, G, M, GM, and GEMM represent BFU/CFU-E, CFU-G, CFU-M, CFU-GM, and CFU-GEMM, respectively, in both E and F.
NOD/SCID-IL2Rg mice (NSG) mice were purchased from the Jackson Laboratory (Stock #005557). 1×10^6 of MDS-derived cell line (MDSL) cells were retro-orbitally injected into 12-week-old sub-lethally irradiated (250 rad) female NSG mice. Ten days after transplantation, human IgG isotype control (BE0297, InVivoMab) or tocilizumab (Selleck) were administered at 8 mg/kg weekly via intraperitoneal injection. To evaluate the engraftment, peripheral blood was collected from tail vein on day 60. […]

For assay [6] the following is noted: transfusion-dependent patients, low or intermediate-1-risk MDS, vs placebo; cited from earlier work.

Regarding tocilizumab, the “colony numbers / clonogenicity” value was “markedly reduced; also recorded: reduces cell proliferation and colony formation; also recorded: reduces the colony numbers” in assay [1]; “significantly reduced clonogenicity” in assay [1] (listed as Tocilizumab). The p-STAT3 result in the assay on p-STAT3 was “significant reduction”. Besides, in the assay on MDSL cells [2], the cell death result is given as “partial induction of cell death; also recorded: partially induces cell death”. In the assay with MDSL cells [3], the “cell proliferation (relative cell number, CCK-8)” value is recorded as “decreased cell proliferation; also recorded: reduces cell proliferation”. In addition, the “colony expansion or composition / colony numbers” value was “no effects on the colony numbers” in assay [4] and “did not affect colony expansion or composition” in assay [4] (listed as Tocilizumab). The spleen weight entry is “reduces spleen weight” with MDSL cells [5] and “reduced the spleen weight” in the assay with MDSL cells [5] (listed as Tocilizumab). Besides, the “MDSL engraftment (hCD45+ mononuclear cells in the peripheral blood)” value with MDSL cells [5] (NSG mice, 60 days post transplantation, vs human IgG) is on record as “significantly reduced MDSL engraftment; also recorded: markedly reduced the engraftment”.

B1: siltuximab (antibody, chains of the INN, looked up, V domains shown)
VH: EVQLVESGGKLLKPGGSLKLSCAASGFTFSSFAMSWFRQSPEKRLEWVAEISSGGSYTYYPDTVTGRFTISRDNAKNTLYLEMSSLRSEDTAMYYCARGLWGYYALDYWGQGTSVTVSS
VL: QIVLIQSPAIMSASPGEKVTMTCSASSSVSYMYWYQQKPGSSPRLLIYDTSNLASGVPVRFSGSGSGTSYSLTISRMEAEDAATYYCQQWSGYPYTFGGGTKLEIK
Turning to B1, the RBC transfusions entry in assay [6] is on record as “no reduction in RBC transfusions”.
